Values of other authors as cited in patent publication US9433620B2, “Pharmaceutical compositions of lurasidone” (CADILA HEALTHCARE LIMITED, priority 2011, dated 2016).
Counter-ions that a name gives are not always drawn.

solubility in water: less than several
SMILES: O=C1[C@@H]2[C@H]3CC[C@H](C3)[C@@H]2C(=O)N1C[C@@H]1CCCC[C@H]1CN1CCN(c2nsc3ccccc23)CC1 [lurasidone, N-[4-[4-(1,2-benzisothiazol-3-yl)-1-piperazinyl]-(2R,3R)-2,3-tetramethyle-ne-butyl]-(1′R,2′S,3′R,4′S)-2,3-bicyclo[2,2,1]heptanedicarboxylmide hydrochloride]
